Results published in ChEMBL document CHEMBL3132769, “Fragment growing to retain or alter the selectivity of anchored kinase hinge-binding fragments” (Medchemcomm, 2014).

Columns and labels:
[1] = target: T1, Testis-specific serine/threonine-protein kinase 2 (Homo sapiens) (UniProt Q96PF2); assay: Inhibition of human full length TSSK2 expressed in baculovirus assessed as substrate phosphorylation using fluorescence-labelled peptides as substrate at 8 uM after 90 mins by microfluidic peptide phosphorylation assay
T1 sequence (whole entry): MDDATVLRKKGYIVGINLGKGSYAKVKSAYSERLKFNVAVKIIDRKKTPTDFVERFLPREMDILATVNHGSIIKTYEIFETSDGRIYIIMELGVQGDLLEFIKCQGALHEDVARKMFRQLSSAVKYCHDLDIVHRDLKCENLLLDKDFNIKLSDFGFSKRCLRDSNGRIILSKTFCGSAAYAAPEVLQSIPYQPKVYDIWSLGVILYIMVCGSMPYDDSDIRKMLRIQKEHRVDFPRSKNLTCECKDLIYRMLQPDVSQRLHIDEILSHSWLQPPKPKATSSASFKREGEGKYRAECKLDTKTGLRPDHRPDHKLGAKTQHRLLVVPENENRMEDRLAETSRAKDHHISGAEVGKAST

[2] = target: T2, Protein kinase C epsilon type (Homo sapiens) (UniProt Q02156); assay: Inhibition of human truncated PKC epsilon expressed in baculovirus assessed as substrate phosphorylation using fluorescence-labelled peptides as substrate at 2 uM after 90 mins by microfluidic peptide phosphorylation assay
T2 sequence (whole entry): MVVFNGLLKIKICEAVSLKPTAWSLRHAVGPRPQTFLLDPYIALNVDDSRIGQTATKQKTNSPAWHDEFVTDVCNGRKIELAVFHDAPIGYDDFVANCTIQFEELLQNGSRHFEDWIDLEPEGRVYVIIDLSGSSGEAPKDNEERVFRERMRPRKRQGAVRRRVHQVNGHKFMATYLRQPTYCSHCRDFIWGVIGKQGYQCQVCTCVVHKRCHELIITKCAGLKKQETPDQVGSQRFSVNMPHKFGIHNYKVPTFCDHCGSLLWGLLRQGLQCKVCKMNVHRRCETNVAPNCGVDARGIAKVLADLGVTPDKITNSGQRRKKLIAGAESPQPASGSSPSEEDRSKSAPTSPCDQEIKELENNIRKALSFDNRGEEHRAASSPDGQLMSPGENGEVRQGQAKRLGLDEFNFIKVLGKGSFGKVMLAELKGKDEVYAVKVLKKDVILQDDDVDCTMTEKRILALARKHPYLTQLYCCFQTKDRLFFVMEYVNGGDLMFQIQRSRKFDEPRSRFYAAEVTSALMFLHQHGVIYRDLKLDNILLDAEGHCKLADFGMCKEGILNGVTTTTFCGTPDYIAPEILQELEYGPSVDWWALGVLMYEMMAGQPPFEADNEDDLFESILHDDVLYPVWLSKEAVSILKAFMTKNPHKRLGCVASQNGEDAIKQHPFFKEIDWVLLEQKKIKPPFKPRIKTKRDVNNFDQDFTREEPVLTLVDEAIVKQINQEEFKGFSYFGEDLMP

[3] = target: Tyrosine-protein kinase HCK (Homo sapiens) (UniProt P08631); assay: Inhibition of human HCK catalytic domain expressed in baculovirus assessed as substrate phosphorylation using fluorescence-labelled peptides as substrate at […] after 90 mins by microfluidic peptide phosphorylation assay
[4] = target: Mitogen-activated protein kinase 14 (Homo sapiens) (UniProt Q16539); assay: Inhibition of human truncated p38 alpha expressed in Escherichia coli cell assessed as substrate phosphorylation using fluorescence-labelled peptides as substrate at 9 uM after 90 mins by microfluidic peptide phosphorylation assay
[5] = target: T3, Serine/threonine-protein kinase Sgk3 (Homo sapiens) (UniProt Q96BR1); details: 0.1 uM
T3 sequence (whole entry): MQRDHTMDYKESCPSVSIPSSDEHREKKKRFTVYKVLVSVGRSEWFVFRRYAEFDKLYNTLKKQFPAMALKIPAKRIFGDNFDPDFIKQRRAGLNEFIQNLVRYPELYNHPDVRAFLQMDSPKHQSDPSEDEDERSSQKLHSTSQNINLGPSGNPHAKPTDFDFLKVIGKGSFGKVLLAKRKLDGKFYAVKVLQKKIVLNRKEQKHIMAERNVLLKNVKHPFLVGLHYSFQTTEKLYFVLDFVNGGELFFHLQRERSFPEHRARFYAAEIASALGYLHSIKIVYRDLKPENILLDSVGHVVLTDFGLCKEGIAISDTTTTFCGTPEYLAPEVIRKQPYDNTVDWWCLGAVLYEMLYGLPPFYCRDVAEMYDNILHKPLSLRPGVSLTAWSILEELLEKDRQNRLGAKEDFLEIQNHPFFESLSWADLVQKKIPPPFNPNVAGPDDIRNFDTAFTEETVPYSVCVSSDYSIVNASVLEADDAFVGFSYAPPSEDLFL
Description: Inhibition of human full length SGK3 expressed in baculovirus assessed as substrate phosphorylation using fluorescence-labelled peptides as substrate at 0.1 uM after 90 mins by microfluidic peptide phosphorylation assay

[6] = target: Aurora kinase B (Homo sapiens) (UniProt Q96GD4); details: 0.1 uM
Description: Inhibition of human full length AurB expressed in baculovirus assessed as substrate phosphorylation using fluorescence-labelled peptides as substrate at 0.1 uM after 90 mins by microfluidic peptide phosphorylation assay

[7] = target: T4, Serine/threonine-protein kinase DCLK2 (Homo sapiens) (UniProt Q8N568); assay: Inhibition of human full length DCAMKL2 expressed in baculovirus assessed as substrate phosphorylation using fluorescence-labelled peptides as substrate at 70 uM after 90 mins by microfluidic peptide phosphorylation assay
T4 sequence (whole entry): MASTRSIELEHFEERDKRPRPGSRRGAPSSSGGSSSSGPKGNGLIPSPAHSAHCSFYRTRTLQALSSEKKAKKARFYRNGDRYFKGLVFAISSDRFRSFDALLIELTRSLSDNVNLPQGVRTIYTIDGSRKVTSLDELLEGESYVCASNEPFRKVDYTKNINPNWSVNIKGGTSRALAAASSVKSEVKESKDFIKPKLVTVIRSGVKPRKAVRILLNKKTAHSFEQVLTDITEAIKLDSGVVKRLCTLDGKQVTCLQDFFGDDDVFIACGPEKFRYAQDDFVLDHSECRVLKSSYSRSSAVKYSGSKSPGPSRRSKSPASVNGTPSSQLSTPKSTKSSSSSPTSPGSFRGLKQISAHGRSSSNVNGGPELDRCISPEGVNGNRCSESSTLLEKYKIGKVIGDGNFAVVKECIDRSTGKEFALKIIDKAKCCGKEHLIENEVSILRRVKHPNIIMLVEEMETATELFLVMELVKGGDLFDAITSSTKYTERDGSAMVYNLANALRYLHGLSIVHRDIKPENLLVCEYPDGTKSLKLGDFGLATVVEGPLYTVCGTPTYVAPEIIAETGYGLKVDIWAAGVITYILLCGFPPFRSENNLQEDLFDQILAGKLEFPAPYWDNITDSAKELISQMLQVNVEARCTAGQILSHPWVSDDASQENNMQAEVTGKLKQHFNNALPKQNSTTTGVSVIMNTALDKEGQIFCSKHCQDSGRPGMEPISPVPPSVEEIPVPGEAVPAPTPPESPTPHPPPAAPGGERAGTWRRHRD

[8] = target: Serine/threonine-protein kinase MARK2 (Homo sapiens) (UniProt Q7KZI7); assay: Inhibition of human full length MARK2 expressed in baculovirus assessed as substrate phosphorylation using fluorescence-labelled peptides as substrate at 420 uM after 90 mins by microfluidic peptide phosphorylation assay
[9] = target: T4, Serine/threonine-protein kinase DCLK2 (Homo sapiens); assay: Inhibition of human full length DCAMKL2 expressed in baculovirus assessed as substrate phosphorylation using fluorescence-labelled peptides as substrate at 420 uM after 90 mins by microfluidic peptide phosphorylation assay

Serine/threonine-protein kinase MARK2 (Homo sapiens), sequence (Q7KZI7 whole entry): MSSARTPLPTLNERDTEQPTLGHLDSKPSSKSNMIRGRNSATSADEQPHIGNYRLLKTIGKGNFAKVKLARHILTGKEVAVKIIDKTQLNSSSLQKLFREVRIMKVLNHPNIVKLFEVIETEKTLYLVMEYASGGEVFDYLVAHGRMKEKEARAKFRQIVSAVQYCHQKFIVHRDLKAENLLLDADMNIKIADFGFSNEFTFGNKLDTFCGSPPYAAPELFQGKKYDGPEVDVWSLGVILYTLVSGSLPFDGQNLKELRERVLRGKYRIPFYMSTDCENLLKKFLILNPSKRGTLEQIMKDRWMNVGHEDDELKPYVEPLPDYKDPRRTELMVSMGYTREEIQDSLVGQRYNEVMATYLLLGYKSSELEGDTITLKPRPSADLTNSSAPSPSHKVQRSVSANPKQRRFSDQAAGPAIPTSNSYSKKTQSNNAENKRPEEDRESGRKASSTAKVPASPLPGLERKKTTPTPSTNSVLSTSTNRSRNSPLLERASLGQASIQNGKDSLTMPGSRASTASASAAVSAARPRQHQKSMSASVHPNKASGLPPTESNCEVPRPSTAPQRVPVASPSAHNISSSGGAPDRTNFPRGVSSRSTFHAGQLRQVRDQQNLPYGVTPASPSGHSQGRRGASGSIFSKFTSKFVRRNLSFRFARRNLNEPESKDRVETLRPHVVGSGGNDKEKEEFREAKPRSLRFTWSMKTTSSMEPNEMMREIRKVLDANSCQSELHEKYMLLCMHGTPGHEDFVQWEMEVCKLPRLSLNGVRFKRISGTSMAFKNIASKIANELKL
Aurora kinase B (Homo sapiens), sequence (Q96GD4 whole entry): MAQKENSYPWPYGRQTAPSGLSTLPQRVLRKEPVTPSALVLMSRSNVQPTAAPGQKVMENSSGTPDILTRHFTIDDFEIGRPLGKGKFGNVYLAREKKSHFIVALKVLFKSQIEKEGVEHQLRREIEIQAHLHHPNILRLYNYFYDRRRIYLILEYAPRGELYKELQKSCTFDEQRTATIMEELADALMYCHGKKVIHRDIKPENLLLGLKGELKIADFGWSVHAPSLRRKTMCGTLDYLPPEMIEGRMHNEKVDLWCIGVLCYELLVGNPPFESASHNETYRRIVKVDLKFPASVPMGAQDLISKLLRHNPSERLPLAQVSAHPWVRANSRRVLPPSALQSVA
Tyrosine-protein kinase HCK (Homo sapiens), sequence (P08631 2-526 limits assumed): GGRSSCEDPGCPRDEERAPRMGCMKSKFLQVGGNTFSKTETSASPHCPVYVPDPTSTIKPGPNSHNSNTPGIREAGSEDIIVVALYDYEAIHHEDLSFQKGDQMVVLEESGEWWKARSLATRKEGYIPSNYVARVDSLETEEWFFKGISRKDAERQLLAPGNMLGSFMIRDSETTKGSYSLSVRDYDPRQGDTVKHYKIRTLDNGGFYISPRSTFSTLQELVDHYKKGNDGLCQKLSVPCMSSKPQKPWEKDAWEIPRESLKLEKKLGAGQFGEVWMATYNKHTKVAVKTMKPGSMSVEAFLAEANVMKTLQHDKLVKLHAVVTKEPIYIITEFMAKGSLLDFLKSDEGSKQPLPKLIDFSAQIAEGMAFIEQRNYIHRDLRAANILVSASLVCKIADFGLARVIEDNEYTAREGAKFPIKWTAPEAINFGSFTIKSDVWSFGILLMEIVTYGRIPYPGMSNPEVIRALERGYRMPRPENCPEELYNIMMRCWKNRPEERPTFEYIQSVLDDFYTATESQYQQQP
Mitogen-activated protein kinase 14 (Homo sapiens), sequence (Q16539 whole entry, the tested form may be a part): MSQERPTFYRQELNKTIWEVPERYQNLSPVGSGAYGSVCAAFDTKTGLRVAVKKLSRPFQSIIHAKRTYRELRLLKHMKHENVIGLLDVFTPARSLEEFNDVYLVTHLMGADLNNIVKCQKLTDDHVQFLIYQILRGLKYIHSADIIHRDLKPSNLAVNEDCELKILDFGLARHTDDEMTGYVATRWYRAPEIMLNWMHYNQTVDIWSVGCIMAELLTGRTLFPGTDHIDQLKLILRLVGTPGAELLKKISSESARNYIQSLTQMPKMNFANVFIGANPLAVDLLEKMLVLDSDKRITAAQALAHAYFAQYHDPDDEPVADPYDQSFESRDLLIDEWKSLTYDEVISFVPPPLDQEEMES

**Q.** How did the inhibition [1] turn out when `NCC1CCN(c2ncnc3[nH]ccc23)CC1` was run?
**A.** 23.5%

**Q.** `NC1CCN(c2ncnc3[nH]ccc23)CC1` was tested. Which inhibition [2] did it give?
**A.** 2.5%

**Q.** `COC(=O)c1cnc(Nc2cnc(C#N)cn2)cc1NCC1CCNCC1` was tested. Which inhibition [3] did it give?
**A.** 11%

**Q.** How did the inhibition [4] turn out when `NCC1CN(c2ncnc3[nH]c4cnccc4c23)CCO1` (centres undefined) was run?
**A.** 2.5%

**Q.** Which inhibition [5] does the source give for `C[C@H](CN(C)C)Oc1nc(Nc2cc3cccc(Cl)c3cn2)cnc1C#N` here?
**A.** 0%

**Q.** What about the inhibition [6] of the same compound?
**A.** 0%

**Q.** How did the inhibition [7] turn out when `CNCc1ccc(-c2ncnc3[nH]cnc23)cc1` was run?
**A.** 20.5%

**Q.** Which results are given for `c1nc(N2CCOCC2)c2nc[nH]c2n1`?
**A.** inhibition [8]: 88%; inhibition [9]: 41.5%
